Test results taken from patent US20240245647A1, “ISOMEROHYDROLASE INHIBITOR FOR TREATMENT OF ATROPHIC FORM OF AGE-RELATED MACULAR DEGENERATION AND STARGARDT DISEASE” (The Trustees of Columbia University in the City of New York, priority 2021, published 2024).

Columns and labels:
[1] = target: T1, RPE65 (Gallus gallus, UniProt Q9YGX2); assay: Liposome-based isomerase assay with purified RPE65; format: biochemical, chicken
T1 sequence (Q9YGX2 1-533): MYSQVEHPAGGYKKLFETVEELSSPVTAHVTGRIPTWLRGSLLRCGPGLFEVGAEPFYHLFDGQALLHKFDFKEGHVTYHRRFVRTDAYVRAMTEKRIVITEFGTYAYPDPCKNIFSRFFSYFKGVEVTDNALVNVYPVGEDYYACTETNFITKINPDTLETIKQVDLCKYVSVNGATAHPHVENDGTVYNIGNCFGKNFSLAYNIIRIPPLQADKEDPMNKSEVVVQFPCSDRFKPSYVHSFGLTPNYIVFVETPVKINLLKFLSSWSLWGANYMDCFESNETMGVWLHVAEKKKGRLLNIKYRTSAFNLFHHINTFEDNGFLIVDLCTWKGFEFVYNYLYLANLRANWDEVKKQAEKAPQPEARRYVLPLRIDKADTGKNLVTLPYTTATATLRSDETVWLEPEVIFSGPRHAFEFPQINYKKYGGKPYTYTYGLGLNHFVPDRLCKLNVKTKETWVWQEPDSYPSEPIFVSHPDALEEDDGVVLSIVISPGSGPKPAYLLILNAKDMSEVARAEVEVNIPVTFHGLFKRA
Description: FIG. 3. Uncompetitive inhibition of RPE65 isomerase by RPE65-61. All-trans-retinyl ester incorporated in liposomes was used as a substrate for purified RPE65 in the isomerase assay. (FIG. 3A) HPLC elution profile of the reaction products without inhibitor; (FIG. 3B) with 180 nM of RPE65-61; Peak 1, retinyl esters; Peak 2, 11-cis-retinol; Peak 3, all-trans-retinol. (FIG. 3C) Lineweaver-Burk plot of 11-cis-retinol generated by RPE65. Liposomes with increasing concentrations (S) of all-trans-retinyl palmitate were incubated with 25 μg of purified chicken RPE65 in the absence (♦) or in the presence of RPE65-61 (180 nM) (▪).
All-trans [11,12-^3H]-retinol (1 mCi/ml, 45.5 Ci/mmol, Perkin Elmer, Boston, MA) in N,N-dimethyl formamide (DMF) was used as the substrate for the isomerohydrolase assay. Bovine RPE microsomes were prepared as described previously. […] The upper layer was collected and the generated retinoids were analyzed by normal phase HPLC as described (Moiseyev, G. et al. 2003). […] The isomerohydrolase activity was calculated from the area of the 11-cis retinol peak using Radiomatic 610TR software (Perkin Elmer, Boston, MA) with synthetic 11-cis [^3H]-retinol as a standard. […] The retinoid profile after completion of the reaction was analyzed by HPLC where the peaks were identified by co-elution with retinoid standards. […]

[2] = target: T2, RPE65 (Mus musculus, UniProt Q91ZQ5); assay: Chromophore regeneration after photobleach, HPLC retinoid profile; format: in vivo, BALB/cJ mice
T2 construct: from tissue; host or cells: eyes of living BALB/cJ mice
T2 sequence (Q91ZQ5 1-533): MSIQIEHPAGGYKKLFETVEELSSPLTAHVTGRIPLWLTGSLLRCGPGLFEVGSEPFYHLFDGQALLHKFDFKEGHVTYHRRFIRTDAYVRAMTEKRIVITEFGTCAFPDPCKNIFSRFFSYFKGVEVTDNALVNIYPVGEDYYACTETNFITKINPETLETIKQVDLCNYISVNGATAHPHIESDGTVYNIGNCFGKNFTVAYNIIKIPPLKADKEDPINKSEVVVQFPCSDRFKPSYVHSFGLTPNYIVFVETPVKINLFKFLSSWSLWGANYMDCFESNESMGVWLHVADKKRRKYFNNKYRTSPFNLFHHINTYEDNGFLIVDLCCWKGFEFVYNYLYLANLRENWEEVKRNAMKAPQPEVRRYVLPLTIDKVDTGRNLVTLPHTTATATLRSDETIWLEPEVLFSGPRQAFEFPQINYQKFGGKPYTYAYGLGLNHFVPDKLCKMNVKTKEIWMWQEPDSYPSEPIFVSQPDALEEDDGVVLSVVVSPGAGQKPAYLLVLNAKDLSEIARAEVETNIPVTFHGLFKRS
Description: FIG. 4. Systemic injection of inhibitor RPE65-61 delays chromophore regeneration in BALB/cJ mice. Dark-adapted mice were injected with varying amounts of RPE65-61, and subjected to light-adaptation under 5000 lx of fluorescent light for 30 min. The eyes were harvested for HPLC retinoid profiling after 30 min of dark-adaptation, to measure levels of (FIG. 4A) 11-cis-RAL, (FIG. 4B) all-trans-RAL, and (FIG. 4C) all-transretinyl ester. (FIG. 4D) schematic representation of experimental design for RPE65-61 in vivo. Student's t-test. *P<0.05, **<0.01 and ***<0.001. (Mean±SEM).
Dark-adapted or light-exposed mice were sacrificed, and their eyes enucleated under dim red light. The whole eyes were homogenized with a glass grinder in lysis buffer [10 mM NH2OH, 50% ethanol, […] 2-(N-morpholino) ethanesulfonic acid, pH 6.5], incubated for 1 hr, and retinoids were extracted with hexane.
The ability of RPE65-61 to inhibit RPE65 in vivo was also investigated by determining chromophore regeneration after bleaching with 5,000 lux fluorescent light for 30 min. (FIG. 4).

mode of RPE65 inhibition ([1]; liposome-based assay with recombinant RPE65): uncompetitive inhibitor
Ki ([1]; liposome-based assay, 180 nM inhibitor): 150 nM
inhibition of 11-cis-retinal regeneration after photobleaching compared with CU-239 ([2]; mouse, in vivo): higher potency
SMILES: N=S(=O)(CCN)c1cccc(OCC2CCCCC2)c1 (racemic) [RPE65-61, (±)-(2-aminoethyl) (3-(cyclohexylmethoxy)phenyl) (imino)-λ^6-sulfanone]
chromophore regeneration after photobleach ([2]; 0.5, 1 or 2 mg/kg injected, 5,000 lux 30 min): delayed chromophore regeneration after photobleach in a dose-dependent manner
retinyl ester levels in treated mice ([2]; mouse, in vivo): accumulate higher levels of retinyl esters
